“Also recorded” adds a separate entry of the source.
Columns and labels:
[1] = target: E. coli MetAP (Escherichia coli, UniProt P0AE18); test: cell-based MetAP assay; conditions: Ca(II) treated cells; result in words
[2] = tested on: MetAP in the Co(II)-form; conditions: result in words; ref [10]; cited from earlier work
[3] = tested on: E. coli MetAP in the Fe(II)-form; conditions: result in words; ref [11] and [16]; cited from earlier work
[4] = tested on: E. coli AS19 strain; conditions: result in words; ref [11] and [16]; cited from earlier work

Chain of E. coli MetAP (P0AE18 whole entry): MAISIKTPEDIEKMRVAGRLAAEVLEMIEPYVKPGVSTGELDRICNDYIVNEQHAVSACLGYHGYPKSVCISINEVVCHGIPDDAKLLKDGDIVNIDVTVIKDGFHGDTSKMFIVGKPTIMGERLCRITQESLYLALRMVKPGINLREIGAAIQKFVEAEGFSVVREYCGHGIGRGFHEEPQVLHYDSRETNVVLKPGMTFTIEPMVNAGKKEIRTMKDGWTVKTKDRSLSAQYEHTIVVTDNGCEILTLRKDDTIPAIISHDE

| Compound | inhibition of intracellular Met-AMC hydrolysis (cellular MetAP activity) [1] | potency and selectivity towards purified MetAP in the Co(II)-form [2] | inhibition of purified MetAP in the Fe(II)-form [3] | inhibition of bacterial growth [4] |
| --- | --- | --- | --- | --- |
| O=C(Nc1nccs1)C(=O)NC1CCCC1 [compound 30] | no inhibition | highly potent and selective | weak inhibition | did not halt bacterial growth |
| O=C(NC1CC1)c1ccc(-c2ccc(O)c(O)c2)s1 [compound 22] | exceptions | – | – | – |
| Cc1nc(-c2ccc(O)cc2O)cs1 [compound 4] | no inhibition | – | – | – |
| O=C(O)c1ccc(-c2cc(Cl)ccc2Cl)o1 [compound 29] | – | – | weak inhibition | did not halt bacterial growth |
| O=C(NCc1ccccn1)C(=O)Nc1nccs1 [compound 31] | no inhibition | highly potent and selective | weak inhibition | did not halt bacterial growth |
| COc1ccc(-c2csc(C)n2)cc1OC [compound 2] | decreased potency | – | – | – |
| O=C(NC1CC1)c1ccsc1-c1ccc(O)c(O)c1 [compound 23] | exceptions | – | – | – |
| Cc1nc(-c2cccc(O)c2)cs1 [compound 3] | no inhibition | – | – | – |
| Cc1nc(-c2ccc(O)c(O)c2)cs1 [compound 1] | displayed inhibition; also recorded: inhibited in a time-dependent fashion | – | – | – |
| O=C(O)c1ccc(-c2ccccc2Cl)o1 [compound 28] | – | – | weak inhibition | did not halt bacterial growth |

Reference: PMC2844763 (Bioorganic & medicinal chemistry letters, 2010)
